Assay results published in PubChem BioAssay AID330 (DTP/NCI, 2004).
Where “and” joins values, the source holds several entries; their conditions need not be identical. Equal values may be shown once. Toxic doses and inconclusive results are not listed.

Tested on: P388 leukemia ip, CD2F1 mice, survival T/C
Experiment: NCI In Vivo Anticancer Drug Screen. Data for tumor model P388 Leukemia (intraperitoneal) in CD2F1 (CDF1) mice
Details: endpoint: median survival time, higher = longer survival
Procedure, shortened: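 Mice carrying the transplanted tumor received test compound or vehicle. Survival was recorded in each group, and the value is the treated-group measurement divided by that of the vehicle-treated control group.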

[1] = dose: 25.0 mg/kg/injection, schedule: Q01DX005 (ip), vehicle: saline with Tween-80
[2] = dose: 50.0 mg/kg/injection, schedule: Q01DX005 (ip), vehicle: saline with Tween-80
[3] = dose: 200.0 mg/kg/injection, schedule: Q01DX005 (ip), vehicle: saline with Tween-80
[4] = dose: 25.0 mg/kg/injection, schedule: Q01DX009 (ip), vehicle: saline with Tween-80
[5] = dose: 50.0 mg/kg/injection, schedule: Q01DX009 (ip), vehicle: saline with Tween-80
[6] = dose: 100.0 mg/kg/injection, schedule: Q01DX009 (ip), vehicle: saline with Tween-80
[7] = dose: 200.0 mg/kg/injection, schedule: Q01DX009 (ip), vehicle: saline with Tween-80
[8] = dose: 100.0 mg/kg/injection, schedule: Q01DX005 (ip), vehicle: saline with Tween-80
[9] = dose: 60.0 mg/kg/injection, schedule: Q01DX005 (ip), vehicle: Klucel (hydroxypropylcellulose) (HPC)
[10] = dose: 120.0 mg/kg/injection, schedule: Q01DX005 (ip), vehicle: Klucel (hydroxypropylcellulose) (HPC)
[11] = dose: 240.0 mg/kg/injection, schedule: Q01DX005 (ip), vehicle: Klucel (hydroxypropylcellulose) (HPC)
[12] = dose: 100.0 mg/kg/injection, schedule: Q04DX003 (ip), vehicle: saline with Tween-80
[13] = dose: 200.0 mg/kg/injection, schedule: Q04DX003 (ip), vehicle: saline with Tween-80
[14] = dose: 400.0 mg/kg/injection, schedule: Q04DX003 (ip), vehicle: saline with Tween-80
[15] = dose: 100.0 mg/kg/injection, schedule: Q01DX001 (ip), vehicle: saline
[16] = dose: 200.0 mg/kg/injection, schedule: Q01DX001 (ip), vehicle: saline
[17] = dose: 400.0 mg/kg/injection, schedule: Q01DX001 (ip), vehicle: saline
[18] = dose: 60.0 mg/kg/injection, schedule: Q01DX005 (ip), vehicle: saline
[19] = dose: 120.0 mg/kg/injection, schedule: Q01DX005 (ip), vehicle: saline
[20] = dose: 240.0 mg/kg/injection, schedule: Q01DX005 (ip), vehicle: saline

With CC(=O)OCC12CC(c3ccoc3)OC3CCC4C(=O)OC(CC1C)C4(C)C32 (configuration not stated) the T/C (dose: 5.25 mg/kg/injection, schedule: Q01DX005 (ip), vehicle: Klucel (hydroxypropylcellulose) (HPC)) was 106 % of control, the T/C (dose: 10.5 mg/kg/injection, schedule: Q01DX005 (ip), vehicle: Klucel (hydroxypropylcellulose) (HPC)) was 95 % of control and the T/C (dose: 21.0 mg/kg/injection, schedule: Q01DX005 (ip), vehicle: Klucel (hydroxypropylcellulose) (HPC)) was 100 % of control. The T/C (dose: 42.0 mg/kg/injection, schedule: Q01DX005 (ip), vehicle: Klucel (hydroxypropylcellulose) (HPC)) was 93 % of control.

Nc1nc(=S)c2ncn(C3OC(CO)C(O)C3O)c2[nH]1 (configuration not stated) was tested, and the T/C (dose: 2.0 mg/kg/injection, schedule: Q01DX010 (ip), vehicle: saline) was 168 % of control, the T/C (dose: 8.0 mg/kg/injection, schedule: Q01DX010 (ip), vehicle: saline) was 118 % of control and the T/C [1] was 104 % of control. The T/C [2] was 120 % of control, the T/C (dose: 100.0 mg/kg/injection, schedule: Q04DX003 (ip), vehicle: saline sonified) was 122 % of control and the T/C (dose: 132.0 mg/kg/injection, schedule: Q04DX003 (ip), vehicle: saline with Tween-80) was 117 % of control. For the same molecule, the T/C [3] was 150 % of control and 158 % of control and the T/C (dose: 400.0 mg/kg/injection, schedule: Q04DX003 (ip), vehicle: saline sonified) was 86 % of control.

For CSC1C(=O)Nc2ccc([N+](=O)[O-])cc21 (configuration not stated), the T/C [4] was 96 % of control, the T/C [5] was 105 % of control and the T/C [6] was 113 % of control.

For O=C1CCCc2c1[nH]c1ccccc21, the T/C [4] was 100 % of control, the T/C [5] was 105 % of control and the T/C [6] was 108 % of control. For the same molecule, the T/C [7] was 104 % of control.

In the case of O=c1[nH]c(=O)n(C2OC(CO)C(O)C2O)c(NNc2ccccc2)c1NNc1ccccc1 (configuration not stated), the T/C [2] is reported as 97 % of control, the T/C [8] is reported as 111 % of control and the T/C [3] is reported as 117 % of control.

With CC1=C(C(N)=O)C(c2ccc([N+](=O)[O-])cc2)NC(=S)N1 (configuration not stated) the T/C [9] was 92 % of control, the T/C [10] was 90 % of control and the T/C [11] was 92 % of control.

With COc1cc(NCCCCCNC(C)C(C)C)c2ncccc2c1 (configuration not stated) the T/C (dose: 12.5 mg/kg/injection, schedule: Q01DX005 (ip), vehicle: saline with Tween-80) was 93 % of control, the T/C [1] was 95 % of control and the T/C [2] was 100 % of control and 96 % of control.

For CCCCCCCCCCCCCCCCCC(=O)[O][Pb]([CH3])([CH3])[CH3], the T/C (dose: 1.25 mg/kg/injection, schedule: Q01DX009 (ip), vehicle: Klucel (hydroxypropylcellulose) (HPC)) was 107 % of control, the T/C (dose: 2.5 mg/kg/injection, schedule: Q01DX009 (ip), vehicle: Klucel (hydroxypropylcellulose) (HPC)) was 113 % of control and the T/C (dose: 5.0 mg/kg/injection, schedule: Q01DX009 (ip), vehicle: Klucel (hydroxypropylcellulose) (HPC)) was 101 % of control. For the same molecule, the T/C (dose: 6.25 mg/kg/injection, schedule: Q04DX003 (ip), vehicle: Klucel (hydroxypropylcellulose) (HPC)) was 94 % of control, the T/C (dose: 12.5 mg/kg/injection, schedule: Q04DX003 (ip), vehicle: Klucel (hydroxypropylcellulose) (HPC)) was 111 % of control and the T/C (dose: 25.0 mg/kg/injection, schedule: Q04DX003 (ip), vehicle: Klucel (hydroxypropylcellulose) (HPC)) was 92 % of control.

For CSCSCC(CO)NC(=O)C(Cl)Cl (configuration not stated), the T/C (dose: 50.0 mg/kg/injection, schedule: Q01DX009 (ip), vehicle: water) was 102 % of control, the T/C (dose: 200.0 mg/kg/injection, schedule: Q01DX009 (ip), vehicle: water) was 106 % of control and the T/C (dose: 400.0 mg/kg/injection, schedule: Q01DX009 (ip), vehicle: water) was 113 % of control.

In the case of Cc1no[n+]([O-])c1NC(=O)OCc1ccccc1, the T/C (dose: 7.5 mg/kg/injection, schedule: Q01DX005 (ip), vehicle: saline with Tween-80) is reported as 96 % of control, the T/C (dose: 15.0 mg/kg/injection, schedule: Q01DX005 (ip), vehicle: saline with Tween-80) is reported as 100 % of control and the T/C (dose: 30.0 mg/kg/injection, schedule: Q01DX005 (ip), vehicle: saline with Tween-80) is reported as 99 % of control. For the same molecule, the T/C (dose: 60.0 mg/kg/injection, schedule: Q01DX005 (ip), vehicle: saline with Tween-80) was 107 % of control, the T/C (dose: 120.0 mg/kg/injection, schedule: Q01DX005 (ip), vehicle: saline with Tween-80) was 101 % of control and the T/C (dose: 240.0 mg/kg/injection, schedule: Q01DX005 (ip), vehicle: saline with Tween-80) was 100 % of control.

For CCC(C)N(C)/N=N/c1nc[nH]c1C(N)=O (configuration not stated), the T/C [6] was 115 % of control, the T/C [12] was 95 % of control and the T/C [7] was 105 % of control. For the same molecule, the T/C [13] was 113 % of control and the T/C [14] was 113 % of control.

O=c1cc(Cc2ccccc2)[nH]c(=S)[nH]1 was tested, and the T/C [12] was 109 % of control, the T/C [13] was 104 % of control and the T/C [14] was 100 % of control.

CC(=O)C[n+]1ccccc1Sc1ccccc1C was tested, and the T/C [2] was 103 % of control.

For CCCCCCCCCCCCCCCC[N+](C)(C)CCSC(C)=O, the T/C (dose: 0.78 mg/kg/injection, schedule: Q01DX009 (ip), vehicle: acetone) was 100 % of control, the T/C (dose: 1.56 mg/kg/injection, schedule: Q01DX009 (ip), vehicle: acetone) was 104 % of control and the T/C (dose: 3.12 mg/kg/injection, schedule: Q01DX009 (ip), vehicle: acetone) was 104 % of control. The T/C (dose: 6.25 mg/kg/injection, schedule: Q01DX009 (ip), vehicle: acetone) was 107 % of control.

In the case of c1ccc(Cn2cc(CCc3ccncc3)c3ccccc32)cc1, the T/C (dose: 25.0 mg/kg/injection, schedule: Q01DX009 (ip), vehicle: saline) is reported as 100 % of control, the T/C (dose: 50.0 mg/kg/injection, schedule: Q01DX009 (ip), vehicle: saline) is reported as 100 % of control and the T/C (dose: 100.0 mg/kg/injection, schedule: Q01DX009 (ip), vehicle: saline) is reported as 100 % of control.

In the case of COc1ccc2nonc2c1, the T/C [15] is reported as 103 % of control, the T/C [16] is reported as 103 % of control and the T/C [17] is reported as 105 % of control.

In the case of CSCS(=O)C[C@H](CO)NC(=O)/C=C/c1c(C)[nH]c(=O)[nH]c1=O (some centres not stated), the T/C (dose: 0.08 mg/kg/injection, schedule: Q01DX009 (ip), vehicle: other) is reported as 97 % of control, the T/C (dose: 0.4 mg/kg/injection, schedule: Q01DX009 (ip), vehicle: water) is reported as 94 % of control and the T/C (dose: 0.5 mg/kg/injection, schedule: Q01DX009 (ip), vehicle: water) is reported as 95 % of control.

With CC(=O)Nc1cccc(/C(C)=N/NC(N)=O)c1 the T/C [2] was 91 % of control, the T/C [8] was 91 % of control and the T/C [3] was 89 % of control.

With C1OCN2CSCC12 (configuration not stated) the T/C (dose: 100.0 mg/kg/injection, schedule: Q04DX002 (ip), vehicle: saline with Tween-80) was 116 % of control.

O=C1NCC(=O)N2CCCC12 (configuration not stated) was tested, and the T/C [18] was 99 % of control, the T/C [19] was 100 % of control and the T/C [20] was 107 % of control.

With NC(Cc1cnc[nH]1)C(=O)NO (configuration not stated) the T/C [15] was 94 % of control, the T/C [16] was 102 % of control and the T/C [17] was 94 % of control.

C=CCN(N=Nc1ccc(Cl)cc1)c1ccc(Cl)cc1 was tested, and the T/C [4] was 104 % of control and 91 % of control, the T/C [5] was 107 % of control and 117 % of control and the T/C [6] was 108 % of control and 111 % of control. For the same molecule, the T/C [7] was 110 % of control and 117 % of control and 118 % of control.

With CCC(O)C#C[Si](C)(C)C (configuration not stated) the T/C [18] was 97 % of control, the T/C [19] was 100 % of control and the T/C [20] was 103 % of control.

For CC1CC(C)CN(S(=O)(=O)c2cc(Cl)c(Oc3ccc([N+](=O)[O-])cc3Cl)c(Cl)c2)C1 (configuration not stated), the T/C [9] was 101 % of control, the T/C [10] was 100 % of control and the T/C [11] was 110 % of control.

COc1ccc2c(c1O)-c1cccc3c1C(C2)N(CCOCCCl)CC3 (configuration not stated) was tested, and the T/C (dose: 12.5 mg/kg/injection, schedule: Q04DX003 (ip), vehicle: water) was 99 % of control, the T/C (dose: 25.0 mg/kg/injection, schedule: Q04DX003 (ip), vehicle: water) was 107 % of control and the T/C (dose: 50.0 mg/kg/injection, schedule: Q04DX003 (ip), vehicle: water) was 101 % of control. The T/C (dose: 100.0 mg/kg/injection, schedule: Q04DX003 (ip), vehicle: water) was 104 % of control.

For Cc1cccc(N=Nc2c(-c3ccccc3)nn(C(N)=S)c2C)c1C, the T/C (dose: 100.0 mg/kg/injection, schedule: Q04DX002 (ip), vehicle: Klucel (hydroxypropylcellulose) (HPC)) was 94 % of control, the T/C (dose: 200.0 mg/kg/injection, schedule: Q04DX002 (ip), vehicle: Klucel (hydroxypropylcellulose) (HPC)) was 105 % of control and the T/C (dose: 400.0 mg/kg/injection, schedule: Q04DX002 (ip), vehicle: Klucel (hydroxypropylcellulose) (HPC)) was 94 % of control.
